Results: PubChem BioAssay AID256 (DTP/NCI, 2004)
Several values for one entry are separate records, joined by “and”; a condition that tells them apart may be missing. Equal entries are not always repeated. Toxic doses and inconclusive results are not listed. How the source made its calls: active means survival T/C of 150% or more; inactive means T/C below 125% in these data.

Tested on: CD2F1 mice, L1210 leukemia ip, survival T/C
Test: NCI In Vivo Anticancer Drug Screen. Data for tumor model L1210 Leukemia (intraperitoneal) in CD2F1 (CDF1) mice
Details: endpoint: mean survival time, higher = longer survival
Method in brief: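 Ratio T/C, where T is the treated-group value and C the vehicle-dosed control value, from mice implanted with a transplantable tumor.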

[1] = dose: 100.0 mg/kg/injection, schedule: Q01DX001 (ip), vehicle: saline with Tween-80
[2] = dose: 200.0 mg/kg/injection, schedule: Q01DX001 (ip), vehicle: saline with Tween-80
[3] = dose: 400.0 mg/kg/injection, schedule: Q01DX001 (ip), vehicle: saline with Tween-80
[4] = dose: 100.0 mg/kg/injection, schedule: Q04DX003 (ip), vehicle: saline with Tween-80
[5] = dose: 200.0 mg/kg/injection, schedule: Q04DX003 (ip), vehicle: saline with Tween-80
[6] = dose: 400.0 mg/kg/injection, schedule: Q04DX003 (ip), vehicle: saline with Tween-80
[7] = dose: 100.0 mg/kg/injection, schedule: Q01DX009 (ip), vehicle: saline with Tween-80
[8] = dose: 200.0 mg/kg/injection, schedule: Q01DX009 (ip), vehicle: saline with Tween-80
[9] = dose: 12.5 mg/kg/injection, schedule: Q01DX009 (ip), vehicle: saline with Tween-80
[10] = dose: 25.0 mg/kg/injection, schedule: Q01DX009 (ip), vehicle: saline with Tween-80
[11] = dose: 50.0 mg/kg/injection, schedule: Q01DX009 (ip), vehicle: saline with Tween-80
[12] = dose: 100.0 mg/kg/injection, schedule: Q04DX002 (ip), vehicle: saline with Tween-80
[13] = dose: 200.0 mg/kg/injection, schedule: Q04DX002 (ip), vehicle: saline with Tween-80
[14] = dose: 400.0 mg/kg/injection, schedule: Q04DX002 (ip), vehicle: saline with Tween-80
[15] = dose: 100.0 mg/kg/injection, schedule: Q01DX001 (ip), vehicle: saline
[16] = dose: 200.0 mg/kg/injection, schedule: Q01DX001 (ip), vehicle: saline
[17] = dose: 400.0 mg/kg/injection, schedule: Q01DX001 (ip), vehicle: saline
[18] = dose: 400.0 mg/kg/injection, schedule: Q01DX009 (ip), vehicle: saline with Tween-80

Measured: T/C

O=P1(c2ccccc2)NCC(Br)CO1 (configuration not stated)
inactive: dose: 31.3 mg/kg/injection, schedule: Q01DX001 (ip), vehicle: other 95 % of control | dose: 62.5 mg/kg/injection, schedule: Q01DX001 (ip), vehicle: other 95 % of control | dose: 125.0 mg/kg/injection, schedule: Q01DX001 (ip), vehicle: other 100 % of control | dose: 250.0 mg/kg/injection, schedule: Q01DX001 (ip), vehicle: other 100 % of control | dose: 500.0 mg/kg/injection, schedule: Q01DX001 (ip), vehicle: other 95 % of control

CCCCCCCCOC(=O)C12Oc3ccc(-c4ccc5c(c4O)C(O)=C4C(=O)CC(C)C(O)C4(C(=O)OCCCCCCCC)O5)c(O)c3C(O)=C1C(=O)CC(C)C2O (configuration not stated)
inactive: dose: 2.5 mg/kg/injection, schedule: Q01DX009 (ip), vehicle: saline with Tween-80 97 % of control | dose: 5.0 mg/kg/injection, schedule: Q01DX009 (ip), vehicle: saline with Tween-80 97 % of control | dose: 10.0 mg/kg/injection, schedule: Q01DX009 (ip), vehicle: saline with Tween-80 97 % of control

COc1cc2ccc(C=O)cc2cc1OC
inactive: dose: 12.5 mg/kg/injection, schedule: Q01DX009 (ip), vehicle: Klucel (hydroxypropylcellulose) (HPC) 97 % of control | dose: 25.0 mg/kg/injection, schedule: Q01DX009 (ip), vehicle: Klucel (hydroxypropylcellulose) (HPC) 94 % of control | dose: 50.0 mg/kg/injection, schedule: Q01DX009 (ip), vehicle: Klucel (hydroxypropylcellulose) (HPC) 92 % of control | dose: 100.0 mg/kg/injection, schedule: Q01DX009 (ip), vehicle: Klucel (hydroxypropylcellulose) (HPC) 86 % of control | dose: 200.0 mg/kg/injection, schedule: Q01DX009 (ip), vehicle: Klucel (hydroxypropylcellulose) (HPC) 86 % of control | dose: 400.0 mg/kg/injection, schedule: Q01DX009 (ip), vehicle: Klucel (hydroxypropylcellulose) (HPC) 90 % of control

O=C(O)C(O)(O)C(=O)O
inactive: [1] 102 % of control | [2] 102 % of control | [3] 102 % of control

Cc1ccc([Si](C)(C)c2ccccc2)cc1
inactive: dose: 75.0 mg/kg/injection, schedule: Q01DX001 (ip), vehicle: saline 97 % of control | dose: 150.0 mg/kg/injection, schedule: Q01DX001 (ip), vehicle: saline 101 % of control

CN(Cc1ccc2nc(N)[nH]c(=O)c2n1)c1ccc(C(=O)NC(CCC(=O)O)C(=O)O)cc1 (configuration not stated)
inactive: dose: 0.5 mg/kg/injection, schedule: Q01DX005 (ip), vehicle: sodium bicarbonate 98 % of control and 101 % of control | dose: 1.0 mg/kg/injection, schedule: Q01DX005 (ip), vehicle: sodium bicarbonate 101 % of control and 104 % of control | dose: 2.0 mg/kg/injection, schedule: Q01DX005 (ip), vehicle: sodium bicarbonate 101 % of control and 102 % of control | dose: 4.0 mg/kg/injection, schedule: Q01DX005 (ip), vehicle: sodium bicarbonate 98 % of control and 102 % of control | dose: 8.0 mg/kg/injection, schedule: Q01DX005 (ip), vehicle: sodium bicarbonate 104 % of control and 107 % of control | dose: 16.0 mg/kg/injection, schedule: Q01DX005 (ip), vehicle: sodium bicarbonate 102 % of control and 107 % of control

CSc1n[nH]c(N)n1
inactive: [4] 94 % of control | [5] 94 % of control | [6] 90 % of control

CC(=O)Oc1ccc(C2NNC3(O)C(=O)N(C4CCCCC4)CC23)cc1 (configuration not stated)
inactive: [4] 90 % of control | [5] 94 % of control | [6] 98 % of control

Nc1cc(S(=O)(=O)c2ccc(N3CCCCC3)c(N)c2)ccc1N1CCCCC1
inactive: [7] 110 % of control | [8] 113 % of control

O=S1(=O)OCCCC1=C(c1ccccc1)c1ccccc1
inactive: dose: 75.0 mg/kg/injection, schedule: Q01DX009 (ip), vehicle: saline 102 % of control | dose: 75.0 mg/kg/injection, schedule: Q04DX003 (ip), vehicle: saline 101 % of control | dose: 150.0 mg/kg/injection, schedule: Q01DX009 (ip), vehicle: saline 97 % of control | dose: 150.0 mg/kg/injection, schedule: Q04DX003 (ip), vehicle: saline 94 % of control | dose: 300.0 mg/kg/injection, schedule: Q01DX009 (ip), vehicle: saline 97 % of control | dose: 300.0 mg/kg/injection, schedule: Q04DX003 (ip), vehicle: saline 97 % of control

O=[N+]([O-])c1ccc(SSC(Cl)(Cl)Cl)cc1
inactive: dose: 6.25 mg/kg/injection, schedule: Q01DX009 (ip), vehicle: saline with Tween-80 101 % of control | [9] 101 % of control | [10] 101 % of control | [11] 100 % of control

O=C(Nc1cccc(I)c1)OCCCl
inactive: [12] 89 % of control | [13] 92 % of control | [14] 92 % of control

COC1(O)C(=O)c2ccccc2OC1(OC)c1ccc(C)cc1 (configuration not stated)
inactive: dose: 50.0 mg/kg/injection, schedule: Q01DX001 (ip), vehicle: saline 102 % of control | [15] 98 % of control | [16] 96 % of control | [17] 98 % of control

Cc1c2cnccc2c(C)c2c1c1ccccc1n2CCNCCO
inactive: dose: 50.0 mg/kg/injection, schedule: Q01DX009 (ip), vehicle: saline sonified 113 % of control | dose: 100.0 mg/kg/injection, schedule: Q01DX009 (ip), vehicle: saline sonified 87 % of control

COC1=CC2c3ccccc3C1C1C(OC)=CC2c2ccccc21
inactive: [10] 96 % of control | [11] 98 % of control | [7] 96 % of control | [4] 88 % of control

COc1ccc(OC)c(NC(=S)NC(=O)COc2ccccc2)c1
inactive: [1] 87 % of control | [7] 94 % of control and 97 % of control | [12] 98 % of control | [2] 87 % of control | [8] 88 % of control and 93 % of control | [13] 102 % of control | [3] 89 % of control | [18] 102 % of control and 104 % of control | [14] 109 % of control

Cc1ccc(C(=O)c2ccccc2Cl)cc1
inactive: dose: 15.0 mg/kg/injection, schedule: Q01DX009 (ip), vehicle: Klucel (hydroxypropylcellulose) (HPC) 91 % of control | dose: 30.0 mg/kg/injection, schedule: Q01DX009 (ip), vehicle: Klucel (hydroxypropylcellulose) (HPC) 87 % of control | dose: 60.0 mg/kg/injection, schedule: Q01DX009 (ip), vehicle: Klucel (hydroxypropylcellulose) (HPC) 87 % of control

O=c1[nH]cc(Oc2ccccc2)c(=O)[nH]1
inactive: dose: 50.0 mg/kg/injection, schedule: Q01DX001 (ip), vehicle: saline with Tween-80 104 % of control | [1] 96 % of control | [2] 98 % of control

CCOC(=O)Nc1c(C)noc1NC(C)=O
inactive: [7] 95 % of control | [4] 94 % of control | [8] 95 % of control | [5] 94 % of control | [18] 104 % of control | [6] 94 % of control

c1ccc2c(c1)Oc1ccccc1C2C1c2ccccc2Oc2ccccc21
inactive: [4] 100 % of control | [5] 100 % of control | [6] 116 % of control

O=C(NNC(=S)Nc1cccc(C(F)(F)F)c1)c1ccncc1
inactive: [9] 91 % of control | [10] 93 % of control | [11] 88 % of control | [12] 98 % of control | [13] 105 % of control

O=C(O)c1ccccc1CCl
inactive: [4] 103 % of control | [5] 108 % of control | [6] 108 % of control

O=C(CCCl)Oc1c(Cl)c(Cl)c(Cl)c(Cl)c1Cl
inactive: [7] 92 % of control

N\C([S-])=N/N=C\C(=N/N=C(\N)[S-])C(O)C(O)C(O)CO.[Rh+2] (configuration not stated)
inactive: [15] 98 % of control | [16] 96 % of control | [17] 96 % of control

COc1cc(/C=C/c2ccc3ccccc3n2)cc(OC)c1OC
inactive: [7] 94 % of control | [4] 104 % of control | [8] 91 % of control | [5] 96 % of control | [18] 89 % of control | [6] 98 % of control

O=C(NCCC1CC=CCC1)c1ccccc1 (configuration not stated)
inactive: [7] 97 % of control | [8] 95 % of control | [18] 103 % of control

CCN(CC(C)Cl)c1ccc(NC(=O)c2cc(N3CC3)c([N+](=O)[O-])cc2[N+](=O)[O-])cc1 (configuration not stated)
inactive: dose: 22.0 mg/kg/injection, schedule: Q01DX001 (ip), vehicle: Klucel (hydroxypropylcellulose) (HPC) 97 % of control | dose: 44.0 mg/kg/injection, schedule: Q01DX001 (ip), vehicle: Klucel (hydroxypropylcellulose) (HPC) 97 % of control | dose: 88.0 mg/kg/injection, schedule: Q01DX001 (ip), vehicle: Klucel (hydroxypropylcellulose) (HPC) 103 % of control

CC(C)(S)CNCCSC(=O)c1ccccc1
inactive: [7] 103 % of control | [8] 100 % of control | [18] 94 % of control
